According to publication PMC11418212, “Characterization of four structurally diverse inhibitors of SUR2-containing KATP channels” (Channels, 2024):
Several values for one entry are separate records, joined by “and”; a condition that tells them apart may be missing. Equal entries are not always repeated. Entries after “also recorded” stand apart in the source; their conditions may differ. Where two headings read alike, the source gives them in different places.

Columns and labels:
Type in all cases: cell-based
[1] = molecular target: T1, Kir6.1/SUR2B (Homo sapiens, UniProt O60706); assay: Quantitative thallium flux assay, inhibition, stably transfected T-REx-HEK293 cells
T1 construct: expressed in transfected cells; Kir6.1 tetracycline-inducible, SUR2B constitutive

[2] = molecular target: Kir6.2/SUR1 (Homo sapiens, UniProt Q09428); assay: as above; conditions: for Effect on Kir6.2/SUR1 channel activity: VU0071063 activation or ATP depletion, full range of doses tested (up to 30 µM); for IC50 / IC50 Kir6.2/SUR1, ATP depletion / IC50 Kir6.2/SUR1, VU0071063 activation: thallium flux; for IC50 / IC50 Kir6.2/SUR1, ATP depletion: ATP depletion with sodium cyanide and 2-deoxy-glucose; for IC50 Kir6.2/SUR1, VU0071063 activation: in the presence of 10 uM VU0071063
Method: Briefly, T-Rex-HEK293 cells underwent co-transfection with pcDNA5/TO-Kir6.1 or pcDNA5/TO-Kir6.2 (inducible expression) and pcDNA3.1-SUR2B or pcDNA3.1-SUR1 (constitutive expression) using Lipofectamine LTX following the manufacturer’s instructions and were then subjected to selection with antibiotics. Monoclonal cell lines were established through limiting dilution and characterization in thallium flux assays described below. […] KATP channel selectivity assays were performed in HEK293 cells transiently transfected with the indicated subunit using Lipofectamine LTX. The cells were incubated for 48 h after transfection before performing thallium flux assays.
Thallium flux assays were conducted using the established methods. Stably transfected T-REx-HEK-293 cells expressing Kir6.2/SUR1 or Kir6.1/SUR2B were cultured overnight in polyamine-coated plates (black-walled, clear-bottomed; BD, Bedford, MA) at a density of 20,000 cells in 20 µl per well of cell culture media. The expression of Kir6.2/SUR1 or Kir6.1/SUR2B channels was induced by treating cells with 1 µg/ml tetracycline overnight. The following day, cells were rinsed with an assay buffer (Hanks’ Balanced Salt Solution supplied with 20 mM HEPES), loaded with the thallium-sensor dye Brilliant Thallos-AM AM (Ion Bioscience, San Marcos, TX) for 1 h, and then washed again with assay buffer to remove unincorporated dye. […] To activate KATP channels independent of activators with ATP-depletion method, cells were treated with a cocktail of metabolic inhibitors (2.5 mM sodium cyanide and 20 mM 2-deoxy glucose) for 25 min before imagine. Control and test compounds diluted freshly from DMSO stocks into assay buffer were added to wells for four minutes before adding 0.5 mM chloride-free thallium stimulus buffer (Ion Bioscience) to initiate thallium flux through the expressed KATP channels. Thallium flux was recorded from all 384-wells for 2 min before terminating the experiment. […] Selectivity assays against other Kir channels were performed as described previously.
The kinetic fluorescence measurements (F) from each well were normalized to the initial reading (F0), producing static ratios (F/F0) that adjust for variations in cell count and dye uptake. […] The response (maxmin2) was determined by subtracting the min value from the max value. Percent inhibition was calculated by normalizing each well’s response to the positive and negative controls. Concentration–response curves were fitted using a single-site, four-parameter logistic function in Prism version 4.0 (GraphPad Software Inc., San Diego, CA) to calculate the half-maximal inhibitory concentration (IC50). Statistical comparisons of IC50 values were performed using an extra sum-of-squares F test and the Mann–Whitney test. A p-value of less than 0.05 was considered statistically significant.

[3] = molecular target: T1, Kir6.1/SUR2B; assay: Whole-cell patch clamp electrophysiology, T-Rex-HEK293-Kir6.1/SUR2B cells; conditions: 10 µM compound in continued presence of pinacidil (1 μM in Figure 2)
Method: Whole-cell patch clamp electrophysiology experiments were conducted as described previously. Briefly, stably transfected T-Rex-HEK293 cells expressing Kir6.1/SUR2B were seeded at a density of 250,000 cells per 35-mm dish coated with tissue culture-treated polystyrene and incubated at 37°C in a 5% CO2 atmosphere. Whole-cell patch-clamp experiments were initiated 48 h post-seeding. On the day of the experiment, cells were dissociated and seeded onto poly-L-lysine-coated glass coverslips, where they were allowed to recover for at least one hour in a 37°C/5% CO2 incubator prior to the recordings. Patch pipettes with resistances of 2 to 3 MΩ were employed, containing an internal solution composed of 130 mM KCl, 2 mM MgCl2, 1 mM EGTA, 20 mM HEPES-free acid, and 1 mM Na2ADP, adjusted to pH 7.3 with KOH and an osmolarity of 275 mOsmol/kg with sucrose. The extracellular solution consisted of 135 mM NaCl, 5 mM KCl, 2 mM CaCl2, 1 mM MgCl2, 5 mM glucose, and 10 mM HEPES-free acid adjusted to pH 7.4 with NaOH. Test compounds were initially diluted in DMSO before being further diluted into the bath solution, maintaining a final DMSO concentration of less than 0.1% v/v. Recordings of macroscopic currents were conducted in a voltage-clamp setup using an Axopatch 200B Amplifier (Molecular Devices, Sunnyvale, CA), with data sampled at 5 kHz and low-pass filtered at 1 kHz. A ramp protocol was used to generate current–voltage curve relationships. The voltage protocol involved holding the cells at −75 mV, followed by a 200-msec step to −120 mV, a linear ramp to 120 mV over 240 msec at a rate of […], maintaining at 120 mV for 15 msec, and finally stepping back to −120 mV for 100 msec, with this sequence repeated every 5 seconds. […] All data acquisition and analyses were performed using pClamp software version 9.2 (Molecular Devices).
Gold-standard voltage-clamp electrophysiology was used to confirm the inhibitory effects of VU0212387, VU0543336, VU0605768, and VU0544086 on Kir6.1/SUR2B channel activity (Figure 2a–d).
Figure 2. Confirmation of VU0212387, VU0543336, VU0605768, or VU0544086-dependent inhibition of Kir6.1/SUR2B with patch clamp electrophysiology. […] VU compounds tested were (a) VU0212387, (b) VU0543336, (c) VU0605768, or (d) VU0544086. Data mean ± SD current density (n = 3).

[4] = ATP depletion with sodium cyanide and 2-deoxy-glucose, read-out: IC50 Kir6.1/SUR2B, ATP depletion
[5] = channels activated with 10 µM pinacidil, read-out: IC50 Kir6.1/SUR2B, pinacidil activation

Chain of Kir6.2/SUR1 (Q09428 whole entry, species assumed): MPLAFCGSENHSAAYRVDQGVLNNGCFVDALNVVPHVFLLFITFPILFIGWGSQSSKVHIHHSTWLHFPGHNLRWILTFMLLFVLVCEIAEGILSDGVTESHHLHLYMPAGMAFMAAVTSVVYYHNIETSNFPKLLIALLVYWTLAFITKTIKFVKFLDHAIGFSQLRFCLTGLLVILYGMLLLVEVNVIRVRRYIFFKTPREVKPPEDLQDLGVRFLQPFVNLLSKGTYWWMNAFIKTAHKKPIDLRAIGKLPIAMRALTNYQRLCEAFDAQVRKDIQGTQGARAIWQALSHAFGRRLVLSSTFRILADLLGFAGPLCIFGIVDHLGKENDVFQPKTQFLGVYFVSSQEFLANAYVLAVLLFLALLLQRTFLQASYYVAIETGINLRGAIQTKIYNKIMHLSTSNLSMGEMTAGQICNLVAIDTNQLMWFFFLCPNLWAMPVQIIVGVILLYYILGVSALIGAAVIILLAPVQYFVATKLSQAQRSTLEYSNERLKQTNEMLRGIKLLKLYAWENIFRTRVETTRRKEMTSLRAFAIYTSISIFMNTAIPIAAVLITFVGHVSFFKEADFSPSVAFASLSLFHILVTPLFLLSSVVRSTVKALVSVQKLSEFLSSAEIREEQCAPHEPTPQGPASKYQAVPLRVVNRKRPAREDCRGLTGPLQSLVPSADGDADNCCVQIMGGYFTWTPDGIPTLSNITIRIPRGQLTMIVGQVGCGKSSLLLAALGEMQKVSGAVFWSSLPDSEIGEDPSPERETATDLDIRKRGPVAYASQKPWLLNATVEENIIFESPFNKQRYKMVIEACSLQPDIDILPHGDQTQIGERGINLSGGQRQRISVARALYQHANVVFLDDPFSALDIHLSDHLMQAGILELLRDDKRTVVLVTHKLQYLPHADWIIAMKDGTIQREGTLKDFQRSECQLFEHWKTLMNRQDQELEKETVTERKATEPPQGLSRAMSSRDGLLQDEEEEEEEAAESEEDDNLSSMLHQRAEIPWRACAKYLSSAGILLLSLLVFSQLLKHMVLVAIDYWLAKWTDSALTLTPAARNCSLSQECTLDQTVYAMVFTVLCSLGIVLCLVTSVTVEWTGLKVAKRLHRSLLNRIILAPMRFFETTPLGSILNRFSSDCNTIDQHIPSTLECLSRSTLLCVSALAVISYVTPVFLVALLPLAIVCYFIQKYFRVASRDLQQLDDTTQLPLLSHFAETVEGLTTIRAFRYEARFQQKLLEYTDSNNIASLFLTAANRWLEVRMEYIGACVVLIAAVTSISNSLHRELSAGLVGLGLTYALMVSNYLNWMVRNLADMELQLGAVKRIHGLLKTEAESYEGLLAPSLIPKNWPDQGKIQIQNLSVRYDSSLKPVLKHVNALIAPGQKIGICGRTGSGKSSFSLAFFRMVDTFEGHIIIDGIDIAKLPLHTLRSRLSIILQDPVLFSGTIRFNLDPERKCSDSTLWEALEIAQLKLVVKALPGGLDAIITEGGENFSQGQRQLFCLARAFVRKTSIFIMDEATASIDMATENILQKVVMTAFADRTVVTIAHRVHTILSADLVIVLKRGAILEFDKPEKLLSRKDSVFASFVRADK
Chain of Kir6.2/SUR1 (Q14654 whole entry partner, species assumed): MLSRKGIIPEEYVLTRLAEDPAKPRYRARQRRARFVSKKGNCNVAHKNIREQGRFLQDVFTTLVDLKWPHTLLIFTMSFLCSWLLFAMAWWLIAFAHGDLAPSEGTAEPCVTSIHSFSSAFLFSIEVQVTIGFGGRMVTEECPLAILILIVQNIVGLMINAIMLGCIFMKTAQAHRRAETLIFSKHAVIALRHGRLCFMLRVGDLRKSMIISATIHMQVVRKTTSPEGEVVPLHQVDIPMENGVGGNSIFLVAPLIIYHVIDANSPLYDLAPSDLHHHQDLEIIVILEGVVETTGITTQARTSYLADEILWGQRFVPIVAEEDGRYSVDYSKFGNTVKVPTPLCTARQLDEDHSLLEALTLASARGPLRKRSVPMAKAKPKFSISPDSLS
T1 sequence (O60706 1-1549 isoform O60706-2, species assumed): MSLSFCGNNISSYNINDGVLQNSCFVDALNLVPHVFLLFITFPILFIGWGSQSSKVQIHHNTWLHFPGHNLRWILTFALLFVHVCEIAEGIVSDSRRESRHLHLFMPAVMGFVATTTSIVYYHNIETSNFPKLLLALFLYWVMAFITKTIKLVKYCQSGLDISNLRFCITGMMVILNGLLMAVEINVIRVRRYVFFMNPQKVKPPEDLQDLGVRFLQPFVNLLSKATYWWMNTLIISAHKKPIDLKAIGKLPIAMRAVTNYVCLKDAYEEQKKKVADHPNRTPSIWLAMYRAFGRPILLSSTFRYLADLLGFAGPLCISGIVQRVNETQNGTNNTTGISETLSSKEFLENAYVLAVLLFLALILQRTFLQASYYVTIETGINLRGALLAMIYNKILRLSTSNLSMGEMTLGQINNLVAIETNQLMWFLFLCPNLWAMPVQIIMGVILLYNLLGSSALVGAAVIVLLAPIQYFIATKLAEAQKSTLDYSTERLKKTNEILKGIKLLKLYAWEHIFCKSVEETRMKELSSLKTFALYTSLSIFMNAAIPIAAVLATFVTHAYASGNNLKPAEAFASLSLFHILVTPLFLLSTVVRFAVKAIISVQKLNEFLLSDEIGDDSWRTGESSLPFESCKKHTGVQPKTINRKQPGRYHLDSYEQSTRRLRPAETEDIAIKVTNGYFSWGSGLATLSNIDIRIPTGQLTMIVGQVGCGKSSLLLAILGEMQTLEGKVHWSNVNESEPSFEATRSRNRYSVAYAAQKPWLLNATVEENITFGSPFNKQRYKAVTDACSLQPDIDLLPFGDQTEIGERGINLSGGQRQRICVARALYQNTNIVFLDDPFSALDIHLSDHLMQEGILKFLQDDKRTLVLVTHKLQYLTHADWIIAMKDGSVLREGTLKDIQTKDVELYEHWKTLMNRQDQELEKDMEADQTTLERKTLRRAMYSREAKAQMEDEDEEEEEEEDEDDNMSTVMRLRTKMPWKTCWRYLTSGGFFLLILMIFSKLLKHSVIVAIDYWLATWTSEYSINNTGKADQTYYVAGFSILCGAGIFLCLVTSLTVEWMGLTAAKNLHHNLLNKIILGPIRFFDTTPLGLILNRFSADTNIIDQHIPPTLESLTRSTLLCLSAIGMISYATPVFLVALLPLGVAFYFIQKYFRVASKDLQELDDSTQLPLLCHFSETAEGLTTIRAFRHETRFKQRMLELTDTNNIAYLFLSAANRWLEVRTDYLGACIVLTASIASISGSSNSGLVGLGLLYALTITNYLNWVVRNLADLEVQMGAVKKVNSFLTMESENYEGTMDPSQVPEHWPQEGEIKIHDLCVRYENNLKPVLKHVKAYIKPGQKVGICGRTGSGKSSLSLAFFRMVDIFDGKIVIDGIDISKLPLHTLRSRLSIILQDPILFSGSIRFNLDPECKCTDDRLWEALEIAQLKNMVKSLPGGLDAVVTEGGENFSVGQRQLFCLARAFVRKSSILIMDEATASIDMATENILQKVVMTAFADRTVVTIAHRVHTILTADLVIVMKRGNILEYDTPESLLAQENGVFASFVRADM
T1 sequence (Q15842 whole entry partner, species assumed): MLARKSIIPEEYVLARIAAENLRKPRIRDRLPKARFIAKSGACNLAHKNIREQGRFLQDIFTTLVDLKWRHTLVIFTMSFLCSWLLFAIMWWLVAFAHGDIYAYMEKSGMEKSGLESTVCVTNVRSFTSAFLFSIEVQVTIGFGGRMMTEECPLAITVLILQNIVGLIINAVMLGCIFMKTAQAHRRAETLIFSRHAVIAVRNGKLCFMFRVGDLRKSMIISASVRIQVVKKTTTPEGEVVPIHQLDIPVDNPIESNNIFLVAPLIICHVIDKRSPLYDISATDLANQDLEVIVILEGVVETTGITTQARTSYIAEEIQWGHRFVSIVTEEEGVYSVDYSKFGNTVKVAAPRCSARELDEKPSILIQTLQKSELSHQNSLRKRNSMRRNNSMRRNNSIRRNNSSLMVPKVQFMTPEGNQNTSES

Compound	IC50 [1, 4]	IC50 [1, 5]	Effect on Kir6.2/SUR1 channel activity [2]	IC50 [2] [nM]	IC50 Kir6.2/SUR1, ATP depletion [2]	IC50 Kir6.2/SUR1, VU0071063 activation [2]	Inhibition of Kir6.1/SUR2B whole-cell current [3]
O=C1c2oc3ccccc3c(=O)c2C(c2cccc(Br)c2)N1CCO (stereo not shown) [VU0605768, 1-(3-bromophenyl)-2-(2-hydroxyethyl)-1,2-dihydrochromeno[2,3-c]pyrrole-3,9-dione]	779 nM	479 nM	no apparent inhibitory activity; also recorded: no effect	> 30000	no fit	no fit	complete KATP channel inhibition
O=C(NCc1cc(-c2ccncc2)n(C2CCCC2)n1)Nc1cccs1 [VU0544086, 1-((1-cyclopentyl-5-(pyridin-4-yl)-1 H-pyrazol-3-yl)methyl)-3-(thiophen-2-yl)urea]	1000 nM	1000 nM	no apparent inhibitory activity; also recorded: no effect	> 30000	no fit	no fit	complete KATP channel inhibition
c1ccc2[nH]c(CSc3ncnc4c3oc3ccccc34)nc2c1 [VU0212387, 4-(((1 H-benzo[d]imidazol-2-yl)methyl)thio)benzofuro[3,2-d]pyrimidine]	619 nM and 600 nM	1400 nM	no apparent inhibitory activity; also recorded: no effect	> 30000	no fit	no fit	complete KATP channel inhibition
O=C(NCC(O)(c1ccccc1)C(F)(F)F)c1ccc(OC(F)(F)F)cc1 (stereo not shown) [VU0543336, N-(3,3,3-trifluoro-2-hydroxy-2-phenylpropyl)-4-(trifluoromethoxy)benzamide]	126 nM and 100 nM	271 nM and 300 nM	no apparent inhibitory activity; also recorded: no effect	> 30000	no fit	no fit	complete KATP channel inhibition
